Consider three compounds from ChEMBL document CHEMBL3091298, “Bis-phosphonium salts of pyridoxine: the relationship between structure and antibacterial activity” (Bioorg Med Chem, 2013).

Data set [1] can be described thus: Genotoxicity in recA-deficient Escherichia coli assessed as survival at 1 ug/ml after 6 hrs by DNA-repair test. The data set is classed as toxicity, organism-based. As to conditions: read-out: Survival.
Data set [2] in a line: Genotoxicity in polA-deficient Escherichia coli assessed as survival at 1 ug/ml after 6 hrs by DNA-repair test. The data set is classed as toxicity, organism-based. To be noted: read-out: Survival.
Data set [3] concerns Salmonella typhimurium. The data set can be described thus: Mutagenic activity in Salmonella typhimurium TA100 assessed as increase in number of revertants at 10 ug/ml by Ames test relative to solvent control. The data set is classed as toxicity, organism-based. As to conditions: salmonella enterica subsp. enterica serovar typhimurium.
Data set [4] relates to Salmonella typhimurium. The data set can be described thus: Mutagenic activity in Salmonella typhimurium TA100 assessed as increase in number of revertants at 100 ug/ml by Ames test relative to solvent control. The data set is classed as toxicity, organism-based. To be noted: salmonella enterica subsp. enterica serovar typhimurium.
The subject of the next data set is Staphylococcus aureus. The data set can be described thus: Antibacterial activity against Staphylococcus aureus after 18 to 24 hrs. The data set is classed as functional.
Data set [5] can be described thus: Genotoxicity in uvrA-deficient Escherichia coli assessed as survival at 100 ug/ml after 6 hrs by DNA-repair test. Format: toxicity, organism-based. To be noted: read-out: Survival.
Data set [6] concerns Staphylococcus epidermidis. The data set can be described thus: Antibacterial activity against Staphylococcus epidermidis after 18 to 24 hrs. Format: functional.
A short description of data set [7]: Genotoxicity in recA-deficient Escherichia coli assessed as survival at 100 ug/ml after 6 hrs by DNA-repair test. Format: toxicity, organism-based. As to conditions: read-out: Survival.
Another data set concerns Klebsiella pneumoniae. The data set can be described thus: Antibacterial activity against Klebsiella pneumoniae after 18 to 24 hrs. Format: functional.
The subject of another data set is Proteus sp. The data set can be described thus: Antibacterial activity against Proteus sp. after 18 to 24 hrs. The data set is classed as functional. To be noted: Proteus sp. (in: enterobacteria).
The nature of data set [8]: Genotoxicity in polA-deficient Escherichia coli assessed as survival at 10 ug/ml after 6 hrs by DNA-repair test. Format: toxicity, organism-based. As to conditions: read-out: Survival.
Data set [9] concerns Salmonella typhimurium. The data set can be described thus: Mutagenic activity in Salmonella typhimurium TA100 assessed as increase in number of revertants at 1 ug/ml by Ames test relative to solvent control. Format: toxicity, organism-based. As to conditions: salmonella enterica subsp. enterica serovar typhimurium.
A further data set has as its system HEK293. The data set can be described thus: (§1) Cytotoxicity against HEK293 cells after 72 hrs by MTT assay. As to conditions: human, hek293, 72 h. The data set is classed as cell-based.
The nature of data set [10]: Genotoxicity in uvrA-deficient Escherichia coli assessed as survival at 1 ug/ml after 6 hrs by DNA-repair test. To be noted: read-out: Survival. Format: toxicity, organism-based.
Data set [11] can be described thus: Genotoxicity in recA-deficient Escherichia coli assessed as survival at 10 ug/ml after 6 hrs by DNA-repair test. The data set is classed as toxicity, organism-based. As to conditions: read-out: Survival.
The nature of data set [12]: Genotoxicity in polA-deficient Escherichia coli assessed as survival at 100 ug/ml after 6 hrs by DNA-repair test. The data set is classed as toxicity, organism-based. As to conditions: read-out: Survival.
Data set [13] in a line: Genotoxicity in uvrA-deficient Escherichia coli assessed as survival at 10 ug/ml after 6 hrs by DNA-repair test. Format: toxicity, organism-based. To be noted: read-out: Survival.
Data set [14] is described as follows: as §1. The data set is classed as cell-based. To be noted: human, HEK293 cells.

SMILES strings stand for the structures.

As for `Cc1nc(C[P+](c2ccccc2)(c2ccccc2)c2ccccc2)c(C[P+](c2ccccc2)(c2ccccc2)c2ccccc2)c2c1OC(C)(C)OC2.[Cl-].[Cl-]`, the viability at 6 h, 1 ug/ml stood at 88.8% in [1], 114% in data set [2] and 103% in data set [10]. Moreover, the values for the Ratio in the data set on Salmonella typhimurium [3], in the data set on Salmonella typhimurium [4] and in the data set on Salmonella typhimurium [9] were 0.88, 0.85 and 0.76, respectively. The MIC with Staphylococcus aureus was 5 µg/mL; in data set [6] it was 5 µg/mL; in the data set on Klebsiella pneumoniae it was above 1000 µg/mL; with Proteus sp. it was above 1000 µg/mL. For the same compound, the viability at 6 h, 100 ug/ml was found to be 68.9% in data set [5], 70.1% in data set [7] and 59.4% in data set [12]. In addition, the viability at 6 h, 10 ug/ml in [8] came out at 112%; in [11] it was 79.3%; in [13], 114%. The half-maximal cytotoxic concentration (CC50) in the data set with HEK293 was determined as 72 µg/mL.

Turning to `Cc1nc(C[P+](c2ccccc2)(c2ccccc2)c2ccccc2)c(C[P+](c2ccccc2)(c2ccccc2)c2ccccc2)c2c1OC(C)(C)OC2.[Br-].[Br-]`, the minimal inhibitory concentration (MIC) in the data set with Staphylococcus aureus was 1.25 µg/mL; in data set [6], 2.5 µg/mL; with Klebsiella pneumoniae, above 1000 µg/mL; in the data set with Proteus sp., above 1000 µg/mL. This compound came in with a half-maximal cytotoxic concentration (CC50) with HEK293 of 27.5 µg/mL.

As to `CCCC1OCc2c(C[P+](c3ccccc3)(c3ccccc3)c3ccccc3)c(C[P+](c3ccccc3)(c3ccccc3)c3ccccc3)nc(C)c2O1.[Cl-].[Cl-]` (centres undefined), the viability at 6 h, 1 ug/ml in data set [1] came out at 87.8%; in [2] it was 110%; in data set [10] it was 113%. Moreover, the Ratio with Salmonella typhimurium [3] is 1.12; in the data set on Salmonella typhimurium [4], 1.08; in the data set on Salmonella typhimurium [9], 0.91. In addition, the MIC in the data set with Staphylococcus aureus is 1 µg/mL; in data set [6], 1 µg/mL; in the data set with Klebsiella pneumoniae, above 1000 µg/mL; with Proteus sp., above 1000 µg/mL. In addition, the viability at 6 h, 100 ug/ml in data set [5] amounted to 64.4%; in data set [7], 80.4%; in data set [12] it was 57.7%. Besides, the viability at 6 h, 10 ug/ml in [8] came out at 108%; in [11], 83.1%; in data set [13] it was 116%. Besides, in data set [14], the cytotoxic concentration (CC50) at 72 h was 3 µg/mL.
